Measured values taken from US9012460B2, “1-(2-phenoxymethylphenyl)piperazine compounds” (Theravance Biopharma R&D IP, LLC, priority 2010, dated 2015).

Legend:
hNET [1] = biological target: T1, hNET (Homo sapiens, UniProt P23975); assay: hNET neurotransmitter uptake assay (Assay 2) or fluorescence-based assay of Tsuruda et al.; assay type: cell-based; conditions: norepinephrine reuptake inhibition; asterisk = fluorescence-based assay (Tsuruda et al. 2010); read-out: NET pIC50 (converted)
T1 construct: expressed in transfected cells; host or cells: HEK-293
T1 sequence (P23975 whole entry): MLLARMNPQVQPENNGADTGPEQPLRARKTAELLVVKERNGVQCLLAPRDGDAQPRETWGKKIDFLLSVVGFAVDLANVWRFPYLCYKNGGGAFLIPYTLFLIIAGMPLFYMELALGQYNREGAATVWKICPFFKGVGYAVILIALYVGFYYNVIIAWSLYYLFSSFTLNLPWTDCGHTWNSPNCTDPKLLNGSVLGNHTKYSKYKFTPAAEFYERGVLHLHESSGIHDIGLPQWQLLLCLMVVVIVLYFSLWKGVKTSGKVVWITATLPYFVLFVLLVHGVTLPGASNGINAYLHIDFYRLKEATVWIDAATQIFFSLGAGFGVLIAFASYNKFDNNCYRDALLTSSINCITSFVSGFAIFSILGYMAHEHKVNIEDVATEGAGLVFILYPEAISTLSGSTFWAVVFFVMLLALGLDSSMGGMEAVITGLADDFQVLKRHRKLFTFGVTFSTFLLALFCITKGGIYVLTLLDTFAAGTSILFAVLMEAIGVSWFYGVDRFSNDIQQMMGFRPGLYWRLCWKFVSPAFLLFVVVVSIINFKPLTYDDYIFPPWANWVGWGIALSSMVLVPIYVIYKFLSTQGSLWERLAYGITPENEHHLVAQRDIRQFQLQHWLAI
Protocol: (§1) Neurotransmitter uptake assays were used to measure inhibition of ^3H-serotonin (^3H-5-HT), ^3H-norepinephrine (^3H-NE), and ^3H-dopamine (^3H-DA) uptake into cells expressing the respective transporter (hSERT, hNET or hDAT) in order to determine the pIC50 values of test compounds at the transporters.
(§2) HEK-293 derived cell lines stably-transfected with hSERT, hNET, or hDAT, respectively, were grown in DMEM medium supplemented with 10% dialyzed FBS (for hSERT) or FBS (for hNET and hDAT), 100 μg/ml penicillin, 100 μg/ml streptomycin, 2 mM L-glutamine and 250 μg/ml of the aminoglycoside antibiotic G418 (for hSERT and hNET) or 800 ug/ml (for hDAT), in a 5% CO2 humidified incubator at 37° C. When cultures reached 80% confluence, the cells were washed thoroughly in PBS (without Ca^2+and Mg^2+) and lifted with 5 mM EDTA in PBS. […]
(§3) Following a 10 minute incubation, at 37° C., with radioligand, the cells were harvested by rapid filtration over a 96-well UniFilter GF/B plate, pretreated with 1% BSA, and washed 6 times with 650 μl wash buffer (ice cold PBS). Plates were dried overnight at 37° C., ˜45 μl of MicroScint™-20 (Perkin Elmer) added and incorporated radioactivity quantitated via liquid scintillation spectroscopy. Inhibition curves were analyzed using GraphPad Prism Software package (GraphPad Software, Inc., San Diego, Calif.). […]

hSERT [2] = biological target: T2, hSERT (Homo sapiens, UniProt P31645); assay: hSERT membrane radioligand binding assay (Assay 1); conditions: 3H-citalopram, membranes from HEK-293 cells expressing hSERT; read-out: SERT pKi (converted)
T2 construct: expressed in transfected cells; host or cells: HEK-293
T2 sequence (P31645 whole entry): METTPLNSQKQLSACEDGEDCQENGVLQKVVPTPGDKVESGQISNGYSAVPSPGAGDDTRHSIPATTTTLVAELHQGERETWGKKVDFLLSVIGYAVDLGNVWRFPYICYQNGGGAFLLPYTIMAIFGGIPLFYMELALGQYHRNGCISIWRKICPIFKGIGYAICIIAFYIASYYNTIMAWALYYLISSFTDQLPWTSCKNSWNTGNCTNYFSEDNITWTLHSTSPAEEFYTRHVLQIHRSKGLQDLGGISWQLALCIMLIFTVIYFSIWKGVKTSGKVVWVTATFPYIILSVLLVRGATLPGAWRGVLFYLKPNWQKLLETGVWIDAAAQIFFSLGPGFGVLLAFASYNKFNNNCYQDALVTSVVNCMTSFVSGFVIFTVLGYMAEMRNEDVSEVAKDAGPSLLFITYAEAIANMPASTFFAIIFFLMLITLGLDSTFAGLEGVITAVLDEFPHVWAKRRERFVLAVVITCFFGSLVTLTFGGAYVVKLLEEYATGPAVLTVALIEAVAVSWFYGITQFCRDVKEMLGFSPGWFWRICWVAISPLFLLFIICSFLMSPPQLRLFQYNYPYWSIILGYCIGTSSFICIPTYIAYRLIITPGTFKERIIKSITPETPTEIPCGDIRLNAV
Protocol: (§4) Membrane radioligand binding assays were used to measure inhibition of labeled ligand (^3H-citalopram or ^3H-nisoxetine or ^3H-WIN35428) binding to membranes prepared from cells expressing the respective human recombinant transporter (hSERT or hNET or hDAT) in order to determine the pKi values of test compounds at the transporters.
(§5) Recombinant human embryonic kidney (HEK-293) derived cell lines stably transfected with hSERT or hNET, respectively, were grown in DMEM medium supplemented with 10% dialyzed FBS (for hSERT) or FBS (for hNET), 100 μg/ml penicillin, 100 μg/ml streptomycin, 2 mM L-glutamine and 250 μg/ml of the aminoglycoside antibiotic G418, in a 5% CO2 humidified incubator at 37° C. When cultures reached 80% confluence, the cells were washed thoroughly in PBS (without Ca^2+ and Mg^2+) and lifted with 5 mM EDTA in PBS. Cells were pelleted by centrifugation, resuspended in lysis buffer (10 mM Tris-HCl, pH7.5 containing 1 mM EDTA), homogenized, pelleted by centrifugation, then resuspended in 50 mM Tris-HCl, pH 7.5 and 10% sucrose at 4° C. Protein concentration of the membrane suspension was determined using a Bio-Rad Bradford Protein Assay kit. Membranes were snap frozen and stored at −80° C. Chinese hamster ovary membranes expressing hDAT (CHO-DAT) were purchased from PerkinElmer and stored at −80° C.
(§6) Binding assays were performed in a 96-well assay plate in a total volume of 200 μL assay buffer (50 mM Tris-HCl, 120 mM NaCl, 5 mM KCl, pH 7.4) with 0.5, 1, and 3 μg membrane protein, for SERT, NET and DAT, respectively.
(§7) Stock solutions (10 mM in DMSO) of test compound were prepared and serial dilutions made using Dilution Buffer (50 mM Tris-HCl, 120 mM NaCl, 5 mM KCl, pH 7.4, 0.1% BSA, 400 μM ascorbic acid).
(§8) Following a 60 minute incubation at 22° C. (or a period sufficient to reach equilibrium), the membranes were harvested by rapid filtration over a 96-well UniFilter GF/B plate, pretreated with 0.3% polyethyleneimine, and washed 6 times with 300 μl wash buffer (50 mM Tris-HCl, 0.9% NaCl, pH 7.5 at 4° C.). Plates were dried overnight at room temperature, ˜45 μl of MicroScint™-20 (Perkin Elmer) added and bound radioactivity quantitated via liquid scintillation spectroscopy. Inhibition curves and saturation isotherms were analyzed using GraphPad Prism Software package (GraphPad Software, Inc., San Diego, Calif.). IC50 values were generated from concentration response curves using the Sigmoidal Dose Response (variable slope) algorithm in Prism GraphPad. Kd and Bmax values for the radioligand were generated from saturation isotherms using the Saturation Binding Global Fit algorithm in Prism GraphPad. pKi (negative decadic logarithm of Ki) values for test compounds were calculated from the best-fit IC50 values, and the Kd value of the radioligand, using the Cheng-Prusoff equation (Cheng & Prusoff (1973) Biochem. Pharmacol. 22(23):3099-3108): Ki=IC50/(1+[L]/Kd), where [L]=concentration radioligand.

hNET [3] = biological target: T1, hNET; assay: hNET membrane radioligand binding assay (Assay 1); conditions: 3H-nisoxetine, membranes from HEK-293 cells expressing hNET; read-out: NET pKi (converted)
Protocol: as §4, §5, §6, §7, §8

hSERT [4] = biological target: T2, hSERT; assay: hSERT neurotransmitter uptake assay (Assay 2) or fluorescence-based assay of Tsuruda et al.; assay type: cell-based; conditions: serotonin reuptake inhibition; asterisk = fluorescence-based assay (Tsuruda et al. 2010); read-out: SERT pIC50 (converted)
Protocol: as §1, §2, §3

Clc1cccc(OCc2ccccc2N2CCNCC2)c1 [Example 2-12]
≤ 100 nM: IC50 (hNET [1]) | Ki (hSERT [2]) | Ki (hNET [3]) | IC50 (hSERT [4])
